From patent publication US8575349B2, “Derivatives of 1-alkyl-6-oxo-piperidine-3-carboxylic acids and 1-alkyl-5-oxo-pyrrolidine-3-carboxylic acids and their uses as cooling compounds” (International Flavors & Fragrances Inc., priority 2010, dated 2013) come the findings set out here.

Common to all, as to type: in vivo
The nature of assay [1]: Taste evaluation of the compound in water (cooling effect).
Assay [2] is described as follows: Hard candy containing the compound: cooling/taste profile over time. The settings on record: 300 ppm; for overall effect of test candy versus control candy: cherry flavored hard candy; for Profile: hard candy. On the procedure:
First, the following formulation was prepared: […]
The above formulation was added to a stainless steel pot. With constant mixing, the formulation temperature was raised to 138° C. The pot was then removed from the heat, allowing cool to 120° C. and 0.7 g of flavor containing the ingredients in equal amounts: benzaldehyde, tolyl aldehyde, ethyl acetate, maltol, Davana oil, methyl heptinyl carbonate and 3 g of citric acid was added. The resulting cherry flavored liquid candy was then deposited into molds, and the molds containing the liquid candy were cooled to room temperature, yielding 600 g of finished hard candy. […] A test candy was further prepared using the above recipe modified by adding 0.18 g of 1-(2-isopropyl-5-methyl-cyclohexyl)-4-(pyrrolidine-1-carbonyl)-pyrrolidin-2-one (Structure VI, 300 ppm) or 1-(2-isopropyl-5-methyl-cyclohexyl)-4-(piperidine-1-carbonyl)-pyrrolidin-2-one (Structure VII, 300 ppm).

A short description of assay [3]: Chewing gum containing the compound: cooling/taste profile over time. To be noted: for Profile: gum; for overall effect of test gum versus control gum: orange-flavored gum. On the procedure:
The above formulation was prepared in a Sigma mixer. The resultant chewing gum blend was manufactured into strips of 1 inch in width and 0.1 inches in thickness. The strips were subsequently cut into a length of 3 inches each. […] A test gum was further prepared by adding 1-(2-isopropyl-5-methyl-cyclohexyl)-4-(pyrrolidine-1-carbonyl)-pyrrolidin-2-one (Structure VI, 800 ppm) or 1-(2-isopropyl-5-methyl-cyclohexyl)-4-(piperidine-1-carbonyl)-pyrrolidin-2-one (Structure VII, 1200 ppm).

On to `COC(=O)C1CC(=O)N(C2CC(C)CCC2C(C)C)C1` (stereo not shown) [Structure I, 1-(2-isopropyl-5-methyl-cyclohexyl)-5-oxo-pyrrolidine-3-carboxylic acid methyl ester], for which the “taste description / cooling effect” value in assay [1] (10 ppm in water) is on record as “mild cooling effect”.
Still for that read-out and setting: with `CC1CCC(C(C)C)C(N2CC(C(=O)O)CC2=O)C1` (stereo not shown) [Structure II, 1-(2-isopropyl-5-methyl-cyclohexyl)-5-oxo-pyrrolidine-3-carboxylic acid] the entry was “some cooling effect developed in the back of throat”; with `CC(C)CNC(=O)C1CC(=O)N(C2CC(C)CCC2C(C)C)C1` (stereo not shown) [Structure III, 1-(2-isopropyl-5-methyl-cyclohexyl)-5-oxo-pyrrolidine-3-carboxylic acid isobutyl-amide], “mild cooling effect”; with `CCN(C)C(=O)C1CC(=O)N(C2CC(C)CCC2C(C)C)C1` (stereo not shown) [Structure IV, 1-(2-isopropyl-5-methyl-cyclohexyl)-5-oxo-pyrrolidine-3-carboxylic acid ethyl-methyl-amide], “mild cooling effect”.
Consider `COC(=O)C1CC(=O)N(C2CCCCC2C)C1` (stereo not shown) [Structure IX, 1-(2-methyl-cyclohexyl)-5-oxo-pyrrolidine-3-carboxylic acid methyl ester], for which the “taste description / cooling effect” value in assay [1] (40 ppm in water) is “slight upfront bitterness for ˜20-30 seconds and mild cooling effect that slightly built up in a few minutes”.
Regarding `CC1CCC(C(C)C)C(N2CC(C(=O)N3CCC3)CC2=O)C1` (stereo not shown) [Structure V, 4-(azetidine-1-carbonyl)-1-(2-isopropyl-5-methyl-cyclohexyl)-pyrrolidin-2-one], the “taste description / cooling effect” value in assay [1] (40 ppm in water) is “mild cooling, earthy, off-flavor, not bitter, napthalene, herbaceous, slight tingle effect on the tip of tongue, and garden hose, carrot, astringent, and waxy effect”.
With `CC1CCC(C(C)C)C(N2CC(C(=O)N3CCCC3)CC2=O)C1` (stereo not shown) [Structure VI, 1-(2-isopropyl-5-methyl-cyclohexyl)-4-(pyrrolidine-1-carbonyl)-pyrrolidin-2-one], in assay [2], the “overall effect of test candy versus control candy” value is “substantial cooling effect”. The Profile entry was “At 0-1 minute: cooling with slight bitterness;” in assay [2] (at 0-1 minute); “At 1-3 minutes: cooling built up;” in assay [2] (at 1-3 minutes); “At 3-5 minutes: cooling on the roof of mouth;” in assay [2] (at 3-5 minutes); “At 5-10 minutes: cooling with some bitterness;” in assay [2] (at 5-10 minutes); “At 10-20 minutes: cooling with mild bitterness;” in assay [2] (at 10-20 minutes); “At 20-30 minutes: cooling remained” in assay [2] (at 20-30 minutes). In addition, the Profile entry in assay [3] (800 ppm, at 1-3 minutes) was “At 1-3 minutes: cooling delocalized on the tongue;”; in assay [3] (800 ppm, at 3-5 minutes) it was “At 3-5 minutes: mild cooling located on the tongue;”; in assay [3] (800 ppm, at 5-10 minutes), “At 5-10 minutes: moderate cooling on the tongue and the roof”; in assay [3] (800 ppm, at 20-30 minutes), “At 20-30 minutes: clean sensation with a little bitterness”. The “taste description / cooling effect” value in assay [1] (10 ppm in water) was “mild cooling effect with slight bitterness, the cooling effect built up over the time”; in assay [1] (50 ppm in water) it was “cooling effect with bitterness, a menthol-like burning taste, and a nice built-up cooling taste”. Moreover, the “overall effect of test gum versus control gum” value in assay [3] (800 ppm) is “pleasant cooling effect”.
In the case of `CC1CCC(C(C)C)C(N2CC(C(=O)N3CCCCC3)CC2=O)C1` (stereo not shown) [Structure VII, 1-(2-isopropyl-5-methyl-cyclohexyl)-4-(piperidine-1-carbonyl)-pyrrolidin-2-one], the “overall effect of test candy versus control candy” value in assay [2] was “substantial cooling effect”. Also, the Profile result in assay [2] (at 0-1 minute) was “At 0-1 minute: bitterness;”; in assay [2] (at 1-3 minutes) it was “At 1-3 minutes: cooling breath, strong cooling;”; in assay [2] (at 3-5 minutes) it was “At 3-5 minutes: intense cooling;”; in assay [2] (at 5-10 minutes), “At 5-10 minutes: intense cooling throughout mouth;”; in assay [2] (at 10-20 minutes), “At 10-20 minutes: very strong cooling, almost burning;”; in assay [2] (at 20-30 minutes), “At 20-30 minutes: strong and lasting cooling”. The Profile entry in assay [3] (1200 ppm, at 0-1 minute) was “At 0-1 minute: cooling onset, throat and slight tongue irritation,”; in assay [3] (1200 ppm, at 1-3 minutes), “At 1-3 minutes: cooling and irritation delocalized with some”; in assay [3] (1200 ppm, at 3-5 minutes) it was “At 3-5 minutes: full mouth cooling, throughout mouth but not”; in assay [3] (1200 ppm, at 5-10 minutes) it was “At 5-10 minutes: strong cooling in mouth, concentrated in the”; in assay [3] (1200 ppm, at 10-20 minutes) it was “At 10-20 minutes: cooling peaked, consistent without any”; in assay [3] (1200 ppm, at 20-30 minutes), “At 20-30 minutes: strong cooling in mouth and throat,”. Besides, the “taste description / cooling effect” value in assay [1] (40 ppm in water) is “slight upfront bitterness, herbaceous flavor, and built-up cooling effect”. For the same compound, the “overall effect of test gum versus control gum” value in assay [3] (1200 ppm) is reported as “pleasant cooling effect”.
Regarding `CC1CCC(C(C)C)C(N2CC(C(=O)N3CCCCCC3)CC2=O)C1` (stereo not shown) [Structure VIII, 4-(azepane-1-carbonyl)-1-(2-isopropyl-5-methyl-cyclohexyl)-pyrrolidin-2-one], the “taste description / cooling effect” value in assay [1] (40 ppm in water) was “bitterness and cooling effect and both built up”.
Take `CC(C)(C)C1CCCCC1N1CC(C(=O)N2CCCC2)CC1=O` (stereo not shown) [Structure X, 1-(2-tert-butyl-cyclohexyl)-4-(pyrrolidine-1-carbonyl)-pyrrolidin-2-one]: in assay [1] (40 ppm in water), the “taste description / cooling effect” value was “upfront bitterness, quinine, drying, greasy, and burning effect”.
Take `CC(C)(C)C1CCCCC1N1CC(C(=O)N2CCCCC2)CC1=O` (stereo not shown) [Structure XI, 1-(2-tert-butyl-cyclohexyl)-4-(piperidine-1-carbonyl)-pyrrolidin-2-one]: the “taste description / cooling effect” value in assay [1] (40 ppm in water) was “some bitterness and drying, powdery, and minimal cooling effect”.
Take `CC1CCC(C(C)C)C(N2CC(C(=O)N3CCCC3)CCC2=O)C1` (stereo not shown) [Structure XII, 1-(2-isopropyl-5-methyl-cyclohexyl)-5-(pyrrolidine-1-carbonyl)-piperidin-2-one]: the “taste description / cooling effect” value in assay [1] (40 ppm in water) is “slight cooling, and bitter and drying effect”.
For the compound `CC1CCC(C(C)C)C(N2CC(C(=O)N3CCCCC3)CCC2=O)C1` (stereo not shown) [Structure XIII, 1-(2-isopropyl-5-methyl-cyclohexyl)-5-(piperidine-1-carbonyl)-piperidin-2-one], the “taste description / cooling effect” value in assay [1] (40 ppm in water) was “grapefruit-like bitterness, and very mild cooling and drying effect”.
